In US20250304549A1, “HYDROXYAMIDE DERIVATIVE AND USE THEREOF” (SICHUAN HUIYU PHARMACEUTICAL CO., LTD., priority 2022, published 2025):
Counter-ions that a name gives are not always drawn.

What was measured:
[1] = test system: NCI-H69 cells; assay: In vitro cell inhibition assay - NCI-H69 cell proliferation (CellTiter-Glo); format: cell-based; conditions: Homo sapiens, NCI-H69, H69 small cell lung cancer cell proliferation
In short: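 NCI-H69 cells seeded at 1×10^3 per well overnight, then given 8 compound concentrations (5-fold dilutions) in RPMI-640 with 20% FBS for 7 days at 37° C., 5% CO2. Viable cells by CellTiter-Glo luminescence; IC50 fitted from inhibition rate versus no-inhibitor and no-cell controls.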

[2] = biological target: HDAC1 (Homo sapiens (Human), UniProt Q13547); assay: In vitro enzyme inhibition assay - HDAC (HDAC-Glo I/II), HDAC1; format: biochemical; conditions: read-out: HDAC IC50 (nM) HDAC 1
Chain of HDAC1 (Q13547 whole entry): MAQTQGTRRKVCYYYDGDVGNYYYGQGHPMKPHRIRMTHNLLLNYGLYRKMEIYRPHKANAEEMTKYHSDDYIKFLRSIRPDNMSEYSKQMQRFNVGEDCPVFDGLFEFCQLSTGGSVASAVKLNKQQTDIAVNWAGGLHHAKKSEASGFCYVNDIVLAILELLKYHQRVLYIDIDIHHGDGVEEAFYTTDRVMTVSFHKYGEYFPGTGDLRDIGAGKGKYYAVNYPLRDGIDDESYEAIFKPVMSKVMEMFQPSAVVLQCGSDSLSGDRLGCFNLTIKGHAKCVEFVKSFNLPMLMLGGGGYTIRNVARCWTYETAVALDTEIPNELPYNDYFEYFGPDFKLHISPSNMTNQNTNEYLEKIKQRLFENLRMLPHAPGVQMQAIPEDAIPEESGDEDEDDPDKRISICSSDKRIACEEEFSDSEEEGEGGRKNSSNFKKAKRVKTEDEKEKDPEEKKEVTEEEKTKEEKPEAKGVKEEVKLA
In short: (§1)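 Eight compound concentrations (5-fold steps from a 1 mM DMSO stock) tested against pan-HDAC, HDAC1 and HDAC8 with HDAC-Glo I/II reagents, luminescence read-out. Percent inhibition normalized to no-inhibitor and no-enzyme wells; IC50 derived by four-parameter logistic fit.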

[3] = test system: NCI-H1417 cells; assay: In vitro cell inhibition assay - H1417 cell proliferation (CellTiter-Glo); format: cell-based; conditions: Homo sapiens, NCI-H1417, H1417 small cell lung cancer cell proliferation
In short: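 Cells exposed to 8 compound concentrations (5-fold dilutions) in BEGM with 10% FBS for 7 days at 37° C., 5% CO2. Viable cells measured by CellTiter-Glo luminescence; inhibition versus no-inhibitor and no-cell controls, IC50 fitted.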

[4] = biological target: HDAC8 (Homo sapiens (Human), UniProt Q9BY41); assay: In vitro enzyme inhibition assay - HDAC (HDAC-Glo I/II), HDAC8; format: biochemical; conditions: read-out: HDAC IC50 (nM) HDAC 8
Chain of HDAC8 (Q9BY41 whole entry): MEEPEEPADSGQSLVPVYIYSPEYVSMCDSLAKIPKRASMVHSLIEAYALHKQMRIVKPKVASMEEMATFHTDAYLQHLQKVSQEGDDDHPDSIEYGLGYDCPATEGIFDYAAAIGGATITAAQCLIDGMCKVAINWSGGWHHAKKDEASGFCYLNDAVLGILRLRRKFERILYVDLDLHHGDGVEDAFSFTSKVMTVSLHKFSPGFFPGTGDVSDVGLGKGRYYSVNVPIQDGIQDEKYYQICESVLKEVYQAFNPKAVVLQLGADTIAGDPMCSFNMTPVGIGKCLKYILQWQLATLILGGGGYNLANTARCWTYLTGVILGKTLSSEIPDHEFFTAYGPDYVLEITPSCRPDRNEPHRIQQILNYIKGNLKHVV
In short: as §1

[5] = biological target: LSD1 (Homo sapiens (Human), UniProt O60341); assay: In vitro enzyme inhibition assay - LSD1 (HTRF); format: biochemical
[6] = test system: NCI-H526 cells; assay: In vitro cell inhibition assay - NCI-H526 cell proliferation (CellTiter-Glo); format: cell-based; conditions: Homo sapiens, NCI-H526, 120 h, H526 small cell lung cancer cell proliferation, 5 days
In short: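 NCI-H526 cells plated at 1×10^3 per well overnight, then treated with 8 concentrations (5-fold dilutions) in RPMI-640 with 10% FBS for 5 days at 37° C., 5% CO2. Viable cells quantified by CellTiter-Glo luminescence; IC50 fitted from inhibition rates relative to no-inhibitor and no-cell controls.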

[7] = test system: DU145 cells; assay: In vitro cell inhibition assay - DU145 cell proliferation (CellTiter-Glo); format: cell-based; conditions: Homo sapiens, DU-145, Du145 prostate cancer cell proliferation
In short: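 DU145 cells were seeded at 1×10^3 per well, exposed next day to an 8-point, 5-fold compound dilution series in RPMI-640 with 10% FBS, and incubated 6 days at 37° C. Viable cells were measured by CellTiter-Glo luminescence, and IC50 was fitted from inhibition rates relative to no-inhibitor and no-cell controls.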

[8] = biological target: pan-HDAC; assay: In vitro enzyme inhibition assay - HDAC (HDAC-Glo I/II), pan-HDAC; format: biochemical
In short: as §1

IC50 [1] [nM]	IC50 [2] [nM]	IC50 [3] [nM]	IC50 [4] [nM]	IC50 [5] [nM]	IC50 [6] [nM]	IC50 [7] [nM]	IC50 [8] [nM]	Compound
7.01	0.52	5.43	107	27.8	22.9	63.5	6.04	N#Cc1ccc(-c2c(-c3ccc(O)c(O)c3)cnc(N3CCC(NCc4ccc(/C=C/C(=O)NO)cc4)CC3)c2C#N)cc1F [Example 137, (E)-3-(4-(((1-(3-Cyano-4-(4-cyano-3-fluorophenyl)-5-(3,4-dihydroxyphenyl)pyridin-2-yl)piperidin-4-yl)amino)methyl)phenyl)-N-hydroxyacrylamide hydrochloride]
16.8	1.25	1.03	111	0.1	18.1	23.7	1.7	CC(C)(O)COc1ccc(-c2cnc(N3CCC(NCc4ccc(/C=C/C(=O)NO)cc4)CC3)c(C#N)c2-c2ccc(C#N)c(F)c2)cc1O [Example 143, (E)-3-(4-(((1-(3-Cyano-4-(4-cyano-3-fluorophenyl)-5-(3-hydroxy-4-(2-hydroxy-2-methylpropoxy)phenyl)pyridin-2-yl)piperidin-4-yl)amino)methyl)phenyl)-N-hydroxyacrylamide formate]
8.37	0.32	5.1	46	13.6	13.8	20.3	3.55	COc1ccc(-c2cnc(N3CCC(NCc4ccc(/C=C/C(=O)NO)cc4)CC3)c(C#N)c2-c2ccc(C#N)cc2F)cc1O [Example 134, (E)-3-(4-(((1-(3-Cyano-4-(4-cyano-2-fluorophenyl)-5-(3-hydroxy-4-methoxyphenyl)pyridin-2-yl)piperidin-4-yl)amino)methyl)phenyl)-N-hydroxyacrylamide formate]

Second part, the compound before the results:

Compound	IC50 [1] [nM]	IC50 [2] [nM]	IC50 [3] [nM]	IC50 [4] [nM]	IC50 [5] [nM]	IC50 [6] [nM]	IC50 [7] [nM]	IC50 [8] [nM]
COc1cc(F)c(-c2cnc(N3CCC(NCc4ccc(/C=C/C(=O)NO)cc4)CC3)c(C#N)c2-c2ccc(C#N)c(F)c2)cc1O [Example 130, (E)-3-(4-((1-(3-Cyano-4-(4-cyano-3-fluorophenyl)-5-(2-fluoro-5-hydroxy-4-methoxyphenyl)pyridin-2-yl)piperidin-4-yl)amino)methyl) phenyl)-N-hydroxyacrylamide formate]	25.2	0.77	1.09	220	1.89	22.8	25	6.13
N#Cc1ccc(-c2cnc(N3CCC(NCc4ccc(/C=C/C(=O)NO)cc4)CC3)c(C#N)c2-c2ccc(C#N)c(F)c2)cc1O [Example 113, (E)-3-(4-(((1-(3-Cyano-4-(4-cyano-3-fluorophenyl)-5-(4-cyano-3-hydroxyphenyl)pyridin-2-yl)piperidin-4-yl)amino)methyl)phenyl)-N-hydroxyacrylamide formate]	76.3	17.3	29.8	72.7	2	80	130	25
COc1ccc(-c2cnc(N3CCC(NCc4cnc(/C=C/C(=O)NO)s4)CC3)c(C#N)c2-c2ccc(C#N)c(F)c2)cc1O [Example 112, (E)-3-(5-((1-(3-Cyano-4-(4-cyano-3-fluorophenyl)-5-(3-hydroxy-4-methoxyphenyl)pyridin-2-yl)piperidin-4-yl)amino)methyl) thiazol-2-yl)-N-hydroxyacrylamide formate]	32.7	26.3	4.14	81.4	2.66	63.5	86.8	26.9
Cc1ccc(-c2cnc(N3CCC(NCc4ccc(/C=C/C(=O)NO)cc4)CC3)c(C#N)c2-c2ccc(C#N)c(F)c2)cc1O [Example 102, (E)-3-(4-(((1-(3-Cyano-4-(4-cyano-3-fluorophenyl)-5-(3-hydroxy-4-methylphenyl)pyridin-2-yl)piperidin-4-yl)amino)methyl)phenyl)-N-hydroxyacrylamide formate]	0.36	16.3	3.1	178	1.31	4.27	7.43	45.2
Cc1noc2cc(-c3c(-c4ccc(C#N)c(F)c4)nc(N4CCC(NCc5ccc(/C=C/C(=O)NO)cc5)CC4)n4ccnc34)c(F)cc12 [Example 36, (E)-3-(4-(((1-(7-(4-Cyano-3-fluorophenyl)-8-(5-fluoro-3-methyl-benzo[d]isoxazol-6-yl)imidazo[1,2-c]pyrimidin-5-yl)piperidin-4-yl)amino)methyl)phenyl)-N-hydroxyacrylamide formate]	109	118	6.58	97.7	1.18	665	1010	75.1
COc1ccc(-c2sc(C(=O)N3CCC(NCc4ccc(/C=C/C(=O)NO)cc4)CC3)cc2-c2ccc(C#N)c(F)c2)cc1O [Example 33, (E)-3-(4-(((1-(4-(4-cyano-3-fluorophenyl)-5-(3-hydroxy-4-methoxyphenyl)thiophene-2-carbonyl)piperidin-4-yl)amino)methyl)phenyl)-N-hydroxyacrylamide hydrochloride]	186	56.4	140	182	3.71	470	1980	34.2
COc1ccc(-c2cnc(N3CCC(NCc4ccc(/C=C/C(=O)NO)cn4)CC3)c(C#N)c2-c2ccc(C#N)c(F)c2)cc1O [Example 104, (E)-3-(6-((1-(3-Cyano-4-(4-cyano-3-fluorophenyl)-5-(3-hydroxy-4-methoxyphenyl)pyridin-2-yl)piperidin-4-yl)amino)methyl) pyridin-3-yl)-N-hydroxyacrylamide formate]	2.29	5.3	6.58	70.1	0.71	16.9	24.8	10.7
COc1ccc(-c2cnc(N3CCC(NCc4ccc(/C=C/C(=O)NO)cc4)CC3)c(C#N)c2-c2ccc(C#N)cc2)cc1O [Example 118, (E)-3-(4-((1-(3-Cyano-4-(4-cyanophenyl)-5-(3-hydroxy-4-methoxyphenyl)pyridin-2-yl)piperidin-4-yl)amino)methyl) phenyl)-N-hydroxyacrylamide formate]	3.24	0.44	2.8	30.3	0.58	8.09	11.8	0.75
